# Target: T1, PI3Kγ (Homo sapiens, UniProt P48736)
# T1 construct: HA; made in house; host or cells: Spodoptera frugiperda (Sf9) cells, baculovirus coinfection
# Assay: PI3Kγ in vitro kinase assay (32P-ATP, PIP2 lipid micelles, filter plate)
# Assay type: biochemical
# Conditions: purified recombinant p101/p110γ protein with G protein β1/γ2 subunits; 20 μM ATP; 25 μM PIP2; 20 minutes at room temperature
# Experimental: Spodtera frugiperda cells, grown in ESF921 media, were coinfected with baculovirus expressing a glu-tagged p101 and baculovirus expressing an HA-tagged p110γ, at a 3:1 ratio of p101 baculovirus to p110γ baculovirus. Sf9 cells were grown to 1×10^7 total cells/mL in 10 L bioreactors and harvested 48-72 hours post infection. Samples of infected cells were then tested for expression of p101/p110γ PI3 kinase by immunoprecipitation and Western Blot analysis methods (see below). To purify PI3Kγ, 4 volumes of room temperature hypotonic lysis buffer (1 mM MgCl2, 1 mM DTT, 5 mM EGTA, 1 mM Pefabloc, 0.5 μM aprotinin, 5 μM leupeptin, 2 μM pepstatin, 5 μM E64, pH 8) per gram of cell paste, was poured onto frozen cell pellets with stirring, then lysed in a nitrogen “bomb” at 400 psi (599HC […], Parr Instrument Co, Moline, Ill.). NaCl was added to 150 mM, and sodium cholate was added to 1% and mixed for another 45 minutes. The lysates were clarified by centrifugation for 25 minutes at 14,000 rpm. The lysates were then loaded over anti-glu-linked Protein-G Sepaharose beads (Covance Research Products, Richmond, Calif.) using 20 mL resin/50 g cell paste. The column was washed with 15 volumes of wash buffer (1 mM DTT, 0.2 mM EGTA, 1 mM Pefabloc, 0.5 μM aprotinin, 5 μM leupeptin, 2 μM pepstatin, 5 μM E64, 150 mM NaCl, 1% sodium cholate, pH 8). PI3Kγ was eluted with 6 column volumes of wash buffer that contain 100 μg/mL of a peptide that competes for binding of the glu tag. The column fractions with the eluted protein (determined by taking OD280 readings) were collected and dialyzed in 0.2 mM EGTA, 1 mM DTT, 1 mM Pefabloc, 5 μM leupeptin, 0.5% sodium cholate, 150 mM NaCl, and 50% glycerol, pH 8. The fractions were stored at -80° C. until further use. Spodtera frugiperda cells were coinfected with baculovirus expressing a glu-tagged G protein β1 and baculovirus expressing a […], at a 1:1 ratio of glu-tagged G protein β1 baculovirus to G protein β2 baculovirus. Sf9 cells are grown in 10 L bioreactors and harvested 48-72 hours post infection. Samples of infected cells were tested for G protein β1/β2 expression by Western Blot analysis, as described below. Cell lysates were homogenized and loaded onto a column of glu-tagged beads as in Biological Example 1 and competed off the column with a glu peptide and processed as described in Biological Example 1. The inhibitory properties of the compounds in Table 1 were assayed in an in vitro PI3K assay. In a 96-well polypropylene plate, each well was spotted with […] of 50 times the desired final concentration of compound in DMSO. Purified recombinant p101/p110γ protein (0.03 μg; 2.7 nM) and G protein β1/γ2 subunits (0.09 μg; 57.7 nM) for each reaction was combined in the assay buffer (30 mM HEPES, 100 mM NaCl, 1 mM EGTA, and 1 mM DTT). ATP and [γ-^32P-ATP] (0.09 μCi) were added to this mixture so that the final ATP concentration in the reaction was 20 μM. Lipid micelles were formed by sonicating phosphatidylinositol4,5-diphosphate (PIP2), phosphatidylethanolamine (PE), and Na-cholate in the assay buffer for 10 minutes, adding MgCl2 and incubating on ice for 20 minutes, for final concentrations of 25 μM PIP2, 300 μM PE, 0.02% Na-cholate, and 10 mM MgCl2 in the reaction. The reactions were started by adding equal volumes lipid and enzyme mixture in a total volume of 50 μL, allowed to run for 20 minutes at room temperature, and stopped with 100 μL 75 mM H3PO4. The lipid product was transferred to a glass fiber filter plate and washed with 75 mM H3PO4 several times. The presence of radioactive lipid product (PIP3) was measured by adding Wallac Optiphase mix to each well and counting in a Wallac 1450 Trilux plate reader (PerkinElmer Life Sciences Inc., Boston, Mass. 02118). The IC50 for each compound tested is reported in μM in Table 1: […]
# T1 sequence (P48736 whole entry, species assumed): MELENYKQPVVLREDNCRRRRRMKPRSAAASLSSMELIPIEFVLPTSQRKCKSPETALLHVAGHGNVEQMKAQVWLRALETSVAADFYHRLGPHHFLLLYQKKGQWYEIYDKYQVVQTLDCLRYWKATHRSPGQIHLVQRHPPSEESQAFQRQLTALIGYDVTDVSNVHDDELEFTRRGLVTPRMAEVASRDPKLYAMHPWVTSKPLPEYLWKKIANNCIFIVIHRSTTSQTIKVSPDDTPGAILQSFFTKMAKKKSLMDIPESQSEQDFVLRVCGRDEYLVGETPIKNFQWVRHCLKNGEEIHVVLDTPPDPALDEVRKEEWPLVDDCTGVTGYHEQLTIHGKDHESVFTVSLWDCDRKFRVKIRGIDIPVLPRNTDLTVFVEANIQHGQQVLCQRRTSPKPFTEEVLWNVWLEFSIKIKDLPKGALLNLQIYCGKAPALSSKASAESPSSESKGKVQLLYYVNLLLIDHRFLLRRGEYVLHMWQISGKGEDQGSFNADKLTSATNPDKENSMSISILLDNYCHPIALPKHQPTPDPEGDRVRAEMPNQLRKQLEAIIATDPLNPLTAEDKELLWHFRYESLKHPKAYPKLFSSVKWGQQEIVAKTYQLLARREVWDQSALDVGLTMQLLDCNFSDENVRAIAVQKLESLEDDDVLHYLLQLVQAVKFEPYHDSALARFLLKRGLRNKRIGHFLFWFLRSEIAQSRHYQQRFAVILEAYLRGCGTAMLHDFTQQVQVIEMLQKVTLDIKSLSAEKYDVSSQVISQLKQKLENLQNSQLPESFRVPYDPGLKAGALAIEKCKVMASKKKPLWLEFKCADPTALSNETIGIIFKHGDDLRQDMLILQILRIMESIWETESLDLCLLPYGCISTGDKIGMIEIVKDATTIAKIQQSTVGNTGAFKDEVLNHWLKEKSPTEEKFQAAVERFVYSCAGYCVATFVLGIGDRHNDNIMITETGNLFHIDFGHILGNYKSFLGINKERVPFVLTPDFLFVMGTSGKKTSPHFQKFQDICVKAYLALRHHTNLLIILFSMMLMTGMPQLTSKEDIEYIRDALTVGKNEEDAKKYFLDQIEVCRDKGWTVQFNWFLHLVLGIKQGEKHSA
# T1 sequence (Q8WYR1 whole entry partner, species assumed): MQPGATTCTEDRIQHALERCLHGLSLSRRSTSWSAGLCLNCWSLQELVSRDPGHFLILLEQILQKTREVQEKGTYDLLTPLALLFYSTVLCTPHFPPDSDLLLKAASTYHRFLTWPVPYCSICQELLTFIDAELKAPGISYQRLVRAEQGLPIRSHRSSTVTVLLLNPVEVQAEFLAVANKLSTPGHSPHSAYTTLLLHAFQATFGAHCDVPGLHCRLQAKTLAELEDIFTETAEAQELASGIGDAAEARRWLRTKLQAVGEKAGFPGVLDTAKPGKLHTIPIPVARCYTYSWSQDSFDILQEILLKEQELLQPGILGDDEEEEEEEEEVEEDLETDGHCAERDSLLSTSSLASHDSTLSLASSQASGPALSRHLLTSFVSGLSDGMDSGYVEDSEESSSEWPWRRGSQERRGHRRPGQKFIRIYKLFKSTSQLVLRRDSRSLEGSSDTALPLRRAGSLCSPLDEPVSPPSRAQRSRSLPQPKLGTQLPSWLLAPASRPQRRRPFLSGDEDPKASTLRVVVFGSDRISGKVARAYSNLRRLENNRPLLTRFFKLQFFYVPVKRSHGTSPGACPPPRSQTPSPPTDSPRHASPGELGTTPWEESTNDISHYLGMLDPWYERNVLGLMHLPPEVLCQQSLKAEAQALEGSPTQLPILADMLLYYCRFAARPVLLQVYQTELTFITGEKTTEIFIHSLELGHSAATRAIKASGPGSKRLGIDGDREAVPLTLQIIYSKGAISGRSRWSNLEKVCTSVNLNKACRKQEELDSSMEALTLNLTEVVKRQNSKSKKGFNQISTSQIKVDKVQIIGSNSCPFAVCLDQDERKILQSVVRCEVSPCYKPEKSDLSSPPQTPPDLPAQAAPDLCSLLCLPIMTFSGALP
row,SMILES,IC50 [nM]
1,"COc1cc2c(Sc3ccc(CCC(=O)O)cc3)c(C(=O)Nc3nnn[nH]3)sc2cc1C [Example 57, 3-{4-[5-Methoxy-6-methyl-2-(1H-tetrazol-5-ylcarbamoyl)-benzo[b]thiophen-3-ylsulfanyl]-phenyl}-propionic acid]",575
2,"COc1cc2sc(C(=O)Nc3nnn[nH]3)c(Sc3ccc(C(=O)O)cc3)c2cc1C [Example 58, 4-[6-Methoxy-5-methyl-2-(1H-tetrazol-5-ylcarbamoyl)-benzo[b]thiophen-3-ylsulfanyl]-benzoic acid]",1340
3,"COc1cc2sc(C(=O)Nc3nnn[nH]3)c(Sc3ccc(CC(=O)O)cc3)c2cc1C [Example 59, {4-[6-Methoxy-5-methyl-2-(1H-tetrazol-5-ylcarbamoyl)-benzo[b]thiophen-3-ylsulfanyl]-phenyl}-acetic acid]",1320
4,"COc1cc2sc(C(=O)Nc3nnn[nH]3)c(SCc3ccc(C(=O)O)cc3)c2cc1C [Example 60, 4-[6-Methoxy-5-methyl-2-(1H-tetrazol-5-ylcarbamoyl)-benzo[b]thiophen-3-ylsulfanylmethyl]-benzoic acid]",495
5,"COc1cc2sc(C(=O)Nc3nnn[nH]3)c(Sc3ccc(CC(=O)O)cc3)c2cc1OC [Example 61, {4-[5,6-Dimethoxy-2-(1H-tetrazol-5-ylcarbamoyl)-benzo[b]thiophen-3-ylsulfanyl]-phenyl}-acetic acid]",2610
6,"COc1cc2sc(C(=O)Nc3nnn[nH]3)c(Sc3ccc(CCC(=O)O)cc3)c2cc1OC [Example 62, 3-{4-[5,6-Dimethoxy-2-(1H-tetrazol-5-ylcarbamoyl)-benzo[b]thiophen-3-ylsulfanyl]-phenyl}-propionic acid]",2670
7,"CCOc1ccc2sc(C(=O)Nc3nnn[nH]3)c(Sc3ccc(CC(=O)O)cc3)c2c1 [Example 63, {4-[5-Ethoxy-2-(1H-tetrazol-5-ylcarbamoyl)-benzo[b]thiophen-3-ylsulfanyl]-phenyl}-acetic acid]",2710
8,"CCOc1ccc2sc(C(=O)Nc3nnn[nH]3)c(Sc3ccc(CCC(=O)O)cc3)c2c1 [Example 64, 3-{4-[5-Ethoxy-2-(1H-tetrazol-5-ylcarbamoyl)-benzo[b]thiophen-3-ylsulfanyl]-phenyl}-propionic acid]",3620
9,"COCc1cc2sc(C(=O)Nc3nnn[nH]3)c(Sc3ccccc3)c2cc1OC [Example 65, 5-Methoxy-6-methoxymethyl-3-phenylsulfanyl-benzo[b]thiophene-2-carboxylic acid(1H-tetrazol-5-yl)-amide]",315
10,"COc1cc2sc(C(=O)Nc3nn[nH]n3)c(SCc3ccc(C#N)cc3)c2cc1OC [Example 66, 3-(4-Cyano-benzylsulfanyl)-5,6-dimethoxy-benzo[b]thiophene-2-carboxylic acid(2H-tetrazol-5-yl)-amide]",1170

# From patent publication US20040248953A1, “3-Arylsulfanyl and 3-heteroarylsulfanyl substituted benzo[b]thiophenes as therapeutic agents” (priority 2003, published 2004)
